Assay results from patent US20260240846A1, “ZAK ALPHA KINASE (MAP3K20) INHIBITORS FOR USE IN THE TREATMENT OF ANEMIA” (UNIVERSIDAD DE MURCIA, priority 2023, published 2026).

Tests used:
[1] = tested on: K562 cells; assay: Erythroid differentiation assay in K562 cells (hemin; hemoglobin accumulation, western blot); format: cell-based, human
Procedure: FIG. 1. ZAKα/P38 signaling pathway is activated in K562 after erythroid differentiation and its inhibition facilitates terminal erythroid differentiation. K562 cells were pre-treated with 0.1 μM nilotinib (Nil) (A, C, D), 1 μM anisomycin (B) and/or the indicated concentrations of the […] CX-5461 for 24 h, and then differentiated with 50 μM hemin for another 24 h. Hemoglobin accumulation (A, B, D) and NLRP1, phosphorylated P38, GATA1, ZAKα and ACTB (A-C) amounts were then evaluated by western blot. Immunoblots are representative of 3 independent experiments. #1, ACTB; #2, GATA1.
FIG. 2. The ZAKα/P38 signaling pathways is activated in K562 after erythroid differentiation. K562 cells were pre-treated with 0.1 μM nilotinib for 24 h and then differentiated with 50 μM hemin for the indicated times. The amounts of NLRP1, GATA1, phosphorylated P38, total ZAKα, phosphorylated ZAKα (Phos-tag) and ACTB were then evaluated by western blot.
(§1) FIG. 10. Imatinib and dasatinib promote erythropoiesis in human and zebrafish. (A) K562 cells were pretreated with the indicated concentrations of nilotinib, imatinib or dasatinib for 24 h and then differentiated with 50 μM hemin for 24 h. The amounts of NLRP1, GATA1, phosphorylated P38, total ZAKα and ACTB were then evaluated by western blot. (B) Zebrafish larvae were treated from 1 to 2 dpf with the indicated concentrations of nilotinib, imatinib or dasatinib. Representative images and number of neutrophils in larvae of 2 dpf treated by bath immersion with the indicated concentrations of imatinib and dasatinib. Each dot represents one individual and the mean±SEM for each group is also shown. P values were calculated by one-way ANOVA and Tukey's multiple range test. n.s., non-significant. ***P<0.001; ****P<0.0001.
(§2) FIG. 11. Ponatinib and bosutinib promote erythropoiesis in human and zebrafish. (A) K562 cells were pretreated with the indicated concentrations of nilotinib, ponatinib and bosutinib for 24 h and then differentiated with 50 μM hemin for the indicated times. The amounts of NLRP1, total ZAKα, GATA1, phosphorylated P38 and ACTB were then evaluated by western blot. (B) Number of neutrophils in larvae of 2 dpf treated by bath immersion with the indicated concentrations of ponatinib and bosutinib. Each dot represents one individual and the mean±SEM for each group is also shown. P values were calculated by one-way ANOVA and Tukey's multiple range test. n.s., non-significant, *P<0.05. **P<0.01. ***P<0.001.
K562 cells (CRL-3343; American Type Culture Collection) were maintained in RPMI culture medium supplemented with 10% fetal calf serum (FCS), 2 mM Glutamine, and 1% penicillin-streptomycin (Life Technologies). Cells were maintained and subcultured before confluence every 72 h. For differentiation, cells were treated with 50 μM hemin (#16009-13-5, Sigma-Aldrich) in the presence of 0.1% DMSO alone or with the caspase-1 inhibitor VX-765 (100 μM), the tyrosine kinase inhibitor nilotinib (0.1 μM), the RNA polymerase I inhibitor CX-5461 (200 nM, 1 μM and 10 μM) (all from MedChemExpress). Cells were collected at different time points (0, 24, 48 hours post-hemin addition), centrifuged, washed twice with PBS, and stored at −80° C. for further analysis.
Cells were lysed in 50 mM Tris-HCl (pH 7.5), 150 mM NaCl, 1% (w/v) NP-40 and fresh protease inhibitor (1/20, #P8340, Sigma-Aldrich). Protein quantification was performed with the BCA kit using BSA as standard. Cell lysates ([…]) in SDS sample buffer were subjected to electrophoresis on a polyacrylamide gel and transferred to nitrocellulose membranes. The membranes were incubated for 1 h with TTBS containing 5% (w/v) skimmed dried milk powder or 2% (w/v) BSA. The membranes were immunoblotted in the same buffer 16 h at 4° C. with the different primary antibodies diluted 1/1000. The blots were then washed with TTBS and incubated for 1 h at room temperature with secondary HRP-conjugated antibodies diluted 2,500-fold in 5% (w/v) skimmed milk in TTBS. […]

[2] = tested on: zebrafish larvae; assay: Chemical treatment of zebrafish larvae by bath immersion; counting of neutrophils and erythrocytes; format: in vivo, Zebrafish (Danio rerio H.)
Procedure: FIG. 3. ZAKα regulates hematopoiesis in zebrafish through the Nlrp1 inflammasome. Number of neutrophils (B, D, H), erythrocytes (F) and macrophages (J), and caspase-1 activity (K) in 2 dpf larvae either treated from 1 to 2 dpf by bath immersion with 1 μM nilotinib and/or 100 μM anisomycin (A-D) or obtained by injecting one-cell stage embryos with standard or zaka crRNAs/Cas9 complexes (E-K). Representative images of neutrophils (A, C, G), erythrocytes (E) and macrophages (I) are also shown. Each dot represents one individual and the mean±SEM for each group is also shown. P values were calculated using one-way ANOVA and Tukey's multiple range test (B) or Student's t-test (D, F, H, J, K). n.s., non-significant; *P<0.05; **P<0.01; ***P<0.001.
FIG. 6. NLRP1 is activated by phosphorylation of the linker domain after activation of ZAKα and pharmacological inhibition of this signaling pathway promotes erythropoiesis in DBA. (A-D) Number of neutrophils (A-C), and caspase-1 activity (D) in 2 dpf larvae obtained by injection of one-cell stage embryos with human NLRP1 (wild type-WT, S107A and S107D) and treated from 1 to 2 dpf by bath immersion with 1 μM nilotinib (B-D). Representative images of neutrophils (arrows) are also shown in C. (E, F) BMMCs from a DBA patient were incubated for 2 weeks in human methylcellulose complete medium at 37° C. in the presence or absence of the indicated concentrations of nilotinib, and colonies were counted using standard morphological criteria. Each dot represents one individual and the mean±SEM for each group is also shown. P values were calculated by one-way ANOVA and Tukey's multiple range test. n.s., non-significant; *P<0.05; **P<0.01; ***P<0.001; ****P<0.0001.
as §1, §2
Zebrafish (Danio rerio H.) were obtained from the Zebrafish International Resource Center and mated, staged, raised and processed as described in The Zebarfish Book. The lines Tg(mpx:eGFP)^t114, Tg(lyz:DsRED2)^n250, Tg(mfap4:mCherry)^ump6, Tg(gata1a:DsRed)^sd2 Tg(runx1:GAL4)^utn6), Tg(UAS-E1B:NTR-mCherry) and casper (mitfa^w2/w2; mpv17^a9/a9) were previously described. spint1a^hi2217Tg/hi2217Tg was isolated from insertional mutagenesis screens. The experiments performed comply with the Guidelines of the European Union Council (Directive 2010/63/EU) and the Spanish RD 53/2013. The experiments and procedures performed were approved by the Bioethical Committees of the University of Murcia (approval number #669/2020). […]

[3] = tested on: HSPCs from DBA patients; assay: Colony assay of PBMCs from DBA patients in methylcellulose medium; format: cell-based, human; conditions: 2 weeks, indicated concentrations (FIG. 13A)
Procedure: FIG. 13. […] PBMCs from DBA patients were incubated for 2 weeks in human methylcellulose complete medium at 37° C. in the presence or absence of the indicated concentrations of nilotinib, imatinib, dasatinib, bosutinib and ponatinib, and the number of erythroid (A) and myeloid (B) colonies counted using standard morphological criteria. Each dot represents one patient and the means±SEM for each group is also shown.

Cc1cnc(CNC(=O)c2c(=O)c3ccc(N4CCCN(C)CC4)nc3n3c2sc2ccccc23)cn1 [CX-5461]
erythroid differentiation in K562 cells ([1]; CX-5461 at indicated concentrations 24 h, then 50 μM hemin 24 h, hemoglobin accumulation (FIG. 1D)): impairs erythroid differentiation

COc1ccc(C[C@H]2NC[C@H](O)[C@H]2OC(C)=O)cc1 [anisomycin]
neutrophil number in Nlrp1- and Zaka-deficient larvae ([2]; larvae 2 dpf, anisomycin): failed to increase neutrophil number
neutrophil number ([2]; wild type larvae 2 dpf, bath immersion 1 to 2 dpf, 1 μM nilotinib, 100 μM anisomycin): caused neutrophilia

Cc1ccc(NC(=O)c2ccc(CN3CCN(C)CC3)cc2)cc1Nc1nccc(-c2cccnc2)n1 [imatinib]
number of erythrocytes in zebrafish larvae ([2]; bath immersion 1 to 2 dpf, imatinib 1 and 10 μM, dasatinib 0.1 and 1 μM (FIG. 10B)): enhanced the number of erythrocytes
GATA1 protein amounts ([1]; K562 cells, indicated concentrations of TKI 24 h, then 50 μM hemin, western blot (FIG. 10A, 11A)): enhancing GATA1 amount
erythroid differentiation of K562 cells ([1]; indicated concentrations of TKI 24 h, then 50 μM hemin (FIG. 10A, 11A)): promoted erythroid differentiation of K562 cells by blocking the ZAKα/P38 axis
defective erythropoiesis of HSPCs from DBA patients (erythroid colonies) [3]: alleviated defective erythropoiesis
